{
  "source": "patent US20240287138A1",
  "about": "“CYCLIC PEPTIDES FOR INHIBITING TNF RECEPTOR 1 ACTIVITY” (Merck Sharp & Dohme LLC, priority 2023, published 2024)",
  "target": "T1, TNFα-induced NF-κB signal transduction pathway (TNFR1 signaling) in THP-1 cells (Homo sapiens, UniProt P19438)",
  "T1 sequence (P19438 30-455)": "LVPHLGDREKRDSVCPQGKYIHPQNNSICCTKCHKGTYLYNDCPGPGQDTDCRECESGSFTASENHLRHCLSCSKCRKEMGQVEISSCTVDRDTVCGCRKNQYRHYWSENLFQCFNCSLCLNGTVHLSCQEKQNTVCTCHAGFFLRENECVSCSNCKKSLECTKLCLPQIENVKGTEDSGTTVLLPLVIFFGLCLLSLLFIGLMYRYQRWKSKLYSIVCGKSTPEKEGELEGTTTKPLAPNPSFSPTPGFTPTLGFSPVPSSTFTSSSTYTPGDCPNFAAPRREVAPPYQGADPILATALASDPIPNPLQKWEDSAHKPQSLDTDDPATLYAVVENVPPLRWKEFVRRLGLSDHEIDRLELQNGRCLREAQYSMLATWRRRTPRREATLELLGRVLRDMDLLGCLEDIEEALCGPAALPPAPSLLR",
  "experiment": "THP-1 Lucia NF-κB reporter cell assay, inhibition of TNFα-induced NF-κB signaling",
  "type": "cell-based",
  "summary_of_the_method": "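THP-1 Lucia NF-κB cells, 20k/well, no selection antibiotics; peptide pre-inc 1 h 37 °C; + recombinant human TNFα 10 ng/mL final; o.n.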",
  "key": {"[1]": {"details": "THP-1 NF-κB Lucia reporter cells, 10 ng/mL TNFα, 16-18 h, secreted luciferase; read-out: THP-1 IC50"}},
  "note": "Read-outs that look alike come from different tables or passages of the source. Numbered stars: 1 amine (or outer) side, 2 acyl side, 3 side chain; on linkers, the order of the positions; unused ones are H or OH. Bridge positions count the residues as written; N and C are the ends. Square brackets hold non-standard residues; d marks the D form. Peptide text beside a SMILES is read from it. Trp(βS-Me,7-OMe) = COc1cccc2c([C@H](C)[C@H](N)C(=O)O)c[nH]c12; Trp(7-CN) = N#Cc1cccc2c(C[C@H](N)C(=O)O)c[nH]c12; Trp(7-Cl) = N[C@@H](Cc1c[nH]c2c(Cl)cccc12)C(=O)O; X29 = NC(=O)Cc1cccc(C[C@H](N[*:1])C(=O)[*:2])c1; Phe(4-CONH2) = NC(=O)c1ccc(C[C@H](N)C(=O)O)cc1; Phe(4-COOH) = N[C@@H](Cc1ccc(C(=O)O)cc1)C(=O)O; Trp(7-aza) = N[C@@H](Cc1c[nH]c2ncccc12)C(=O)O; Trp(1-Me) = Cn1cc(C[C@H](N)C(=O)O)c2ccccc21; Pip(5R-OH) = O=C(O)[C@@H]1CC[C@@H](O)CN1; X1 = O=C([C@@H]1CC[C@H](N[*:1])C1)[*:2]; Pip(4-aza) = O=C(O)[C@@H]1CNCCN1; 4Pal = N[C@@H](Cc1ccncc1)C(=O)O; NMeE = CN[C@@H](CCC(=O)O)C(=O)O; dHyp = O=C(O)[C@H]1C[C@H](O)CN1; Ahp(2) = CCCCC[C@H](N)C(=O)O; αMeS = C[C@](N)(CO)C(=O)O; Nle = CCCC[C@H](N)C(=O)O; Sar = CNCC(=O)O",
  "data": [
    {"smiles": "CCCC[C@@H]1NC(=O)CSC[C@@H](C(N)=O)NC(=O)[C@H](Cc2cn(C)c3ccccc23)NC(=O)CN(C)C(=O)[C@H](Cc2ccc(O)cc2)NC(=O)[C@H](Cc2ccc(C(=O)O)cc2)NC(=O)[C@](C)(CO)NC(=O)[C@H](Cc2c[nH]c3c(Cl)cccc23)NC(=O)[C@H](Cc2ccncc2)NC(=O)[C@H](CC(N)=O)NC(=O)[C@H](CCC(=O)O)N(C)C(=O)[C@H](Cc2c[nH]c3ncccc23)NC(=O)[C@H](CO)NC(=O)[C@H](Cc2ccncc2)NC1=O", "note": "[SEQ ID NO. 223] ({CH2CO}-[Nle][4Pal]S[Trp(7-aza)][NMeE]N[4Pal][Trp(7-Cl)][αMeS][Phe(4-COOH)]Y[Sar][Trp(1-Me)]C-NH2; thioether N-14)", "values": [
      {"measurement": "IC50", "setting": "[1]", "value": 2.9, "unit": "nM"}
    ]},
    {"smiles": "CN1CC(=O)N[C@@H](CC(N)=O)C(=O)N[C@@H](Cc2ccc(O)cc2)C(=O)N[C@@H](Cc2c[nH]c3ccccc23)C(=O)N[C@@H](CO)C(=O)N[C@@H](Cc2ccc(O)cc2)C(=O)N[C@@H](Cc2ccc(O)cc2)C(=O)N(C)CC(=O)N[C@@H](Cc2c[nH]c3ccccc23)C(=O)N[C@H](C(=O)NCC(=O)N[C@@H](CCC(=O)O)C(=O)N[C@@H](CCC(=O)O)C(N)=O)CSCC(=O)N[C@@H](Cc2ccccc2)C(=O)N[C@@H](Cc2ccc(O)cc2)C(=O)N[C@@H](CO)C(=O)N[C@@H](Cc2c[nH]c3ccccc23)C1=O", "note": "[SEQ ID NO. 289] ({CH2CO}-FYSW[Sar]NYWSYY[Sar]WCGEE-NH2; thioether N-14)", "values": [
      {"measurement": "IC50", "setting": "read-out: THP-1 IC50; THP-1 NF-κB Lucia reporter cells, 10 ng/mL TNFα, 16-18 h, secreted luciferase", "value": 36.4, "unit": "nM"}
    ]},
    {"smiles": "CCCCC[C@@H]1NC(=O)[C@@H]2CC[C@@H](C2)NC(=O)[C@H]([C@@H](C)c2c[nH]c3c(OC)cccc23)NC(=O)CN(C)C(=O)[C@H](Cc2ccc(OC)cc2)NC(=O)[C@H](Cc2ccc(C(N)=O)cc2)NC(=O)[C@](C)(CO)NC(=O)[C@H](Cc2c[nH]c3c(C#N)cccc23)NC(=O)[C@H](Cc2ccncc2)NC(=O)[C@H](CC(N)=O)NC(=O)[C@H]2C[C@H](O)CN2C(=O)[C@H](Cc2c[nH]c3ccccc23)NC(=O)[C@@H]2CNCCN2C(=O)[C@H](Cc2ccncc2)NC1=O", "note": "[SEQ ID NO. 200] (cyclo([4Pal][Trp(7-CN)][αMeS][Phe(4-CONH2)]Y(Me)[Sar][Trp(βS-Me,7-OMe)][X1][Ahp(2)][4Pal][Pip(4-aza)]W[dHyp]N))", "values": [
      {"measurement": "IC50", "setting": "[1]", "value": 1, "unit": "nM"}
    ]},
    {"smiles": "CCCC[C@@H]1NC(=O)CSC[C@@H](C(N)=O)NC(=O)[C@H]([C@@H](C)c2c[nH]c3c(OC)cccc23)NC(=O)CN(C)C(=O)[C@H](Cc2ccc(O)cc2)NC(=O)[C@H](Cc2ccc(C(=O)O)cc2)NC(=O)[C@](C)(CO)NC(=O)[C@H](Cc2c[nH]c3c(Cl)cccc23)NC(=O)[C@H](Cc2ccc(OC)cc2)NC(=O)[C@H](CC(N)=O)NC(=O)[C@H](CCC(=O)O)N(C)C(=O)[C@H](Cc2c[nH]c3ccccc23)NC(=O)[C@@H]2CNCCN2C(=O)[C@H](Cc2ccncc2)NC1=O", "note": "[SEQ ID NO. 218] ({CH2CO}-[Nle][4Pal][Pip(4-aza)]W[NMeE]NY(Me)[Trp(7-Cl)][αMeS][Phe(4-COOH)]Y[Sar][Trp(βS-Me,7-OMe)]C-NH2; thioether N-14)", "values": [
      {"measurement": "IC50", "setting": "[1]", "value": 3.4, "unit": "nM"}
    ]},
    {"smiles": "CCCC[C@@H]1NC(=O)[C@@H]2CC[C@@H](C2)NC(=O)[C@H]([C@@H](C)c2c[nH]c3c(OC)cccc23)NC(=O)CN(C)C(=O)[C@H](Cc2cccc(CC(N)=O)c2)NC(=O)[C@H](Cc2ccc(C(=O)O)cc2)NC(=O)[C@](C)(CO)NC(=O)[C@H](Cc2c[nH]c3c(Cl)cccc23)NC(=O)[C@H](Cc2ccncc2)NC(=O)[C@H](CC(N)=O)NC(=O)[C@H](CCC(=O)O)N(C)C(=O)[C@H](Cc2c[nH]c3ccccc23)NC(=O)[C@@H]2CNCCN2C(=O)[C@H](Cc2ccncc2)NC1=O", "note": "[SEQ ID NO. 153] (cyclo([4Pal][Trp(7-Cl)][αMeS][Phe(4-COOH)][X29][Sar][Trp(βS-Me,7-OMe)][X1][Nle][4Pal][Pip(4-aza)]W[NMeE]N))", "values": [
      {"measurement": "IC50", "setting": "[1]", "value": 2.6, "unit": "nM"}
    ]},
    {"smiles": "CCCC[C@@H]1NC(=O)[C@@H]2CC[C@@H](C2)NC(=O)[C@H]([C@@H](C)c2c[nH]c3c(OC)cccc23)NC(=O)CN(C)C(=O)[C@H](Cc2ccc(C(N)=O)cc2)NC(=O)[C@H](Cc2ccc(C(N)=O)cc2)NC(=O)[C@](C)(CO)NC(=O)[C@H](Cc2c[nH]c3c(C#N)cccc23)NC(=O)[C@H](Cc2ccc(C(=O)O)cc2)NC(=O)[C@H](CC(N)=O)NC(=O)[C@H](CCC(=O)O)N(C)C(=O)[C@H](Cc2c[nH]c3ccccc23)NC(=O)[C@@H]2CC[C@@H](O)CN2C(=O)[C@H](Cc2ccncc2)NC1=O", "note": "[SEQ ID NO. 19] (cyclo([4Pal][Pip(5R-OH)]W[NMeE]N[Phe(4-COOH)][Trp(7-CN)][αMeS][Phe(4-CONH2)][Phe(4-CONH2)][Sar][Trp(βS-Me,7-OMe)][X1][Nle]))", "values": [
      {"measurement": "IC50", "setting": "[1]", "value": 0.6, "unit": "nM"}
    ]}
  ]
}
